Measured values as given in patent US7473681B2, “Kahalalide F” (Pharma Mar, S.A., priority 2000, dated 2009).
Read-outs that look alike come from different tables or passages of the source.

Legend:
[1] = test system: motor (choline acetyl transferase positive) neurons in the spinal cord; test: Fluorescent viability stain with immunocytochemistry; format: cell-based; details: ~10 μM
Method: (§1) We have also found this drug to be neuxotoxic at high concentrations in our assay system and which correlates well with animal data showing neurotoxicity above the maximum tolerated dose (MTD). Using a fluorescent viability stain (ethidium homodimer and calccin AM, Molecular Probes) coupled with immunocytochemistry, we determined that ˜10 μM Kahalalide is toxic to central nervous system (CNS) neurons (neurofilament positive) but spares astrocytes (glial fibrilary acidic protein positive) as well as sensory (substance P expressing) and motor (choline acetyl transferase positive) neurons in the spinal cord. We conclude that Kahalalide F is a promising drug for the treatment of prostate cancer as its neurotoxicity is relatively mild at or below MTD levels.

[2] = test system: sensory (substance P expressing) neurons in the spinal cord; test: as above; format: cell-based; details: ~10 μM
Method: as §1

[3] = test system: astrocytes (glial fibrilary acidic protein positive); test: as above; format: cell-based; details: ~10 μM
Method: as §1

[4] = test system: central nervous system (CNS) neurons (neurofilament positive); test: as above; format: cell-based; details: ethidium homodimer and calcein AM stain
Method: as §1

BT-474 = test: In vitro antiproliferative study; format: cell-based; details: BT-474 neu+ breast tumor cells
DU-145 = test: In vitro antiproliferative study; format: cell-based; details: DU-145 prostate tumor
[5] = test system: skeletal muscle (L8) cells; test: CellTiter96 (MTS) in vitro cytotoxicity assay; format: cell-based
[6] = test system: patients with advanced or metastatic androgen refractory prostate cancer; test: Phase I study: toxicity and anti-tumor activity; format: in vivo, human
[7] = glass infusion containers, refrigerated (+2-8° C., in the dark)
Description: Prior to in i.v. administration it is reconstituted with a solution composed of Cremophor EL, ethanol absolute and Water for Injection (CEW, 5/5/90% v/w) with further dilution in 0.9% w/v sodium chloride for infusion.

BE(2)C = test: In vitro antiproliferative study; format: cell-based; details: BE(2)C neuroblastoma cell line
DHM = test: In vitro antiproliferative study; format: cell-based; details: DHM prostate tumor
[8] = Rodent maximum tolerated dose; format: in vivo
[9] = CellTiter96 (MTS) in vitro cytotoxicity assay; format: cell-based; details: mouse, FDC-P1 myelogenous stem cells; FDC-Pl myelogenous stem cells; read-out: LD50 (the source's name)
[10] = Solubility of KF and recovery after reconstitution and dilution; format: physicochemical; details: 5/5/90% v/v/v CEW, diluted with 0.9% NaCl down to 0.5 μg/mL
Method: Methods. Solubility and stability of KF were studied as a function of polysorbate 80 (P80; 0.1-0.5% w/v) and citric acid monohydrate (CA; 5-15 mM) concentrations using an experimental design approach. Stabilities of KF lyophilized products containing crystalline (mannitol) or amorphous (sucrose) bulking agents were studied at +5° C. and +30° C. in the dark. Lyophilized products were characterized by infrared (IR) spectroscopy and differential scanning calorimetry. Recovery studies after reconstitution of KP lyophilized product and further dilution in infusion fluid were carried out to select an optimal reconstitution vehicle. Results. […] A combination of 0.1% w/v P80 and 5 mM CA was selected for further investigation. […] The glass transition temperature of the sucrose-based product was determined to be +46° C. The amorphous state of the product was confirmed by IR analysis. […] A stable lyophilized formulation is presented containing 100 μg of kahalalide F, 100 mg sucrose, 2.1 mg CA and 2 mg P80 to be reconstituted with a vehicle composed of 5/5/90% v/v/v CEW, and to be further dilute using normal saline.

prostate carcinoma cells = test: Cytotoxicity to carcinoma cells; format: cell-based
[11] = test system: fresh human tumor specimens; test: Human Tumor Cloning Assay; format: cell-based; details: 14-day continuous exposure, 31 evaluable specimens
Method: In the present study, fresh human tumor specimens were treated with KF to determine activity, utilizing the Human Tumor Cloning Assay. One hundred and four patient tumor specimens were treated with KF under 14-day continuous exposure at 0.01, 0.1, and 1.0 μM. Specimens were incubated in a 2-layer soft-agar cloning system at 37° C. and were removed on Day 14 for colony count. Colonies formed in the treated plates were compared to the number of colonies formed in the untreated control plates, and the percent colonies surviving at each concentration was calculated. The positive control plates contained the cell poison orthosodium vanadate (200 μg/ml). Among these specimens, approximately 30% were evaluable with appropriate negative and positive controls.

[12] = In vitro exposure studies; format: cell-based; details: exposure of 1 hour as potent as 48 hours, in most cases
SK-BR-3 = test: In vitro antiproliferative study; format: cell-based; details: SK-BR-3 neu+ breast tumor cells
[13] = Phase I study: plasma pharmacokinetics; format: in vivo, human
Method: Bioanalysis of KF was performed by LC-MS/MS.

[14] = CellTiter96 (MTS) in vitro cytotoxicity assay; format: cell-based; details: rat, NRX-52E kidney cells; read-out: LD50 (the source's name)
RB = test: In vitro antiproliferative study; format: cell-based; details: RB prostate tumor
PC-3 = test: In vitro antiproliferative study; format: cell-based; details: PC-3 prostate tumor
[15] = test system: hepatocellular carcinoma cells; test: Cytotoxicity to carcinoma cells; format: cell-based
[16] = CellTiter96 (MTS) in vitro cytotoxicity assay; format: cell-based; details: mouse, AML-12 liver cells; read-out: LD50 (the source's name)
T-10 = test: In vitro antiproliferative study; format: cell-based; details: T-10 prostate tumor
[17] = CellTiter96 (MTS) in vitro cytotoxicity assay; details: H9 c2 (2-1) cardiac cells
[18] = test system: dedifferentiated and mesenchymal chodrosarcomas, CHSAs

## C/C=C1\NC(=O)[C@H](Cc2ccccc2)NC(=O)[C@@H](C(C)C)NC(=O)[C@@H](C(C)CC)NC(=O)[C@H](NC(=O)C(NC(=O)[C@H](CCCN)NC(=O)[C@H]2CCCN2C(=O)[C@H](NC(=O)[C@@H](NC(=O)[C@@H](NC(=O)[C@H](NC(=O)CCCC(C)C)C(C)C)C(C)O)C(C)C)C(C)C)C(C)CC)C(C)OC(=O)[C@H](C(C)C)NC1=O (single isomer, unassigned) [Kahalalide F, kahalalide F]
[1]
  toxicity to motor neurons: spares
[2]
  toxicity to sensory neurons: spares
[3]
  toxicity to astrocytes: spares
[4]
  concentration toxic to CNS neurons: ~10 µM
BT-474
  IC50: 2000 nM
DU-145
  IC50: 250 nM
[5]
  LD50: 0.6 mM
[6]; 320 μg/m2/day, rapidly reversible
  drug related toxicity: CTC grade 3 ASAT
[6]; one hour infusion, five consecutive days every three weeks
  tolerability of schedule: well tolerated
[6]; up to 320 μg/m2/day, study ongoing
  maximum tolerated dose: has not been reached yet
[7]
  stability of infusion solutions: at least 5 days
BE(2)C
  IC50: 1000 nM
DHM
  IC50: 240 nM
[8]
  MTD: 300 μg/kg BW
[9]
  CC50: 14000 nM
[10]
  KF in solution after reconstitution and further dilution: kept KF in solution
Prostate carcinoma cells
  cytotoxicity: cytotoxic
[11]; 0.01 μg/M
  specimens with in vitro response (50% survival): 16%
[11]; 0.1 μg/M
  specimens with in vitro response (50% survival): 19%
[11]; 1.0 μg/M
  specimens with in vitro response (50% survival): 81%
[12]
  schedule dependence of cytotoxicity: not schedule-dependent
SK-BR-3
  IC50: 2500 nM
[13]; 320 μg/m2/day
  maximum plasma concentrations: 35 to 50 ng/mL
[13]; i.v. infusion over one hour, 20-320 μg/m2/day, patients
  relationship between dose and AUC: linear relationship
[14]
  CC50: 1600 nM
RB
  IC50: 190 nM
PC-3
  IC50: 270 nM
[15]
  cytotoxicity: cytotoxic
[16]
  CC50: 170 nM
osteosarcomas, OSAs
  cytotoxicity: cytotoxic
T-10
  IC50: 730 nM
[17]
  LD50: 5 mM
[18]; CHSAs
  cytotoxicity: cytotoxic
[18]; cells not specified further in the sentence
  exposure time eliciting a cytotoxic effect: 10 min
